Experimental data from ChEMBL document CHEMBL1129835, “Selective cytotoxicity of certain 9-substituted ellipticines for leukemia cells in a variety of leukemia cell cultures” (1997).

Legend:
Type in all cases: functional
Conditions in all cases: Homo sapiens
LOX IMVI = assay: The compound was evaluated for cytotoxicity against LOX-IMVI melanoma cell line
CAKI-1 = assay: The compound was evaluated for cytotoxicity against CAKI-1 renal cancer cell line
MDA-N = assay: The compound was evaluated for cytotoxicity against MDA-N breast cancer cell line
HCT-116 = assay: The compound was evaluated for cytotoxicity against HCT116 colon cancer cell line
PC-3 = assay: The compound was evaluated for cytotoxicity against PC-3 prostate cancer cell line
U-251 = assay: The compound was evaluated for cytotoxicity against U251 CNS cancer cell line
MOLT-4 = assay: The compound was evaluated for cytotoxicity against MOLT-4 leukemia cell line
IGROV-1 = assay: The compound was evaluated for cytotoxicity against IGROV1 ovarian cancer cell line
NCI-H322M = assay: The compound was evaluated for cytotoxicity against NCI-H322M non-small cell lung cancer cell line

SMILES | GI50 (LOX IMVI) [nM] | GI50 (CAKI-1) [nM] | GI50 (MDA-N) [nM] | GI50 (HCT-116) [nM] | GI50 (PC-3) [nM] | GI50 (U-251) [nM] | GI50 (MOLT-4) [nM] | GI50 (IGROV-1) [nM] | GI50 (NCI-H322M) [nM]
CCN(CC)CCNCc1ccc2[nH]c3c(C)c4ccncc4c(C)c3c2c1 | 120 | 160 | 110 | 50 | 210 | 180 | 10 | 40 | 60
Cc1c2ccncc2c(C)c2c1[nH]c1ccc(CNCCN(C)C)cc12 | 160 | 260 | 280 | 170 | 380 | 280 | 100 | 150 | 250
